Test results published in US10597388B2, “Pyridazinone herbicides” (FMC CORPORATION, priority 2014, dated 2020).

What was measured:
Format in all cases: in vivo
[1] = tested on: corn (Zea mays); test: Test A greenhouse herbicide test, pre- and postemergence; conditions: Postemergence
In short: (§1)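 Visual injury ratings, 0 (no effect) to 100 (complete control), versus untreated plants after roughly 10 d in a greenhouse. Compounds, formulated in a surfactant-containing non-phytotoxic solvent, were sprayed on loam–sand soil after sowing (pre) or on one- to two-leaf plants 2–10 cm tall (post).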

[2] = tested on: pigweed (Amaranthus retroflexus); test: as above
In short: as §1

[3] = tested on: ragweed (common ragweed, Ambrosia elatior); test: as above
In short: as §1

[4] = tested on: wheat (Triticum aestivum); test: as above; conditions: Postemergence
In short: as §1

[5] = tested on: kochia (Kochia scoparia); test: as above
In short: as §1

[6] = tested on: foxtail, giant (giant foxtail, Setaria faberii); test: as above
In short: as §1

[7] = tested on: ryegrass, Italian (Italian ryegrass, Lolium multiflorum); test: as above
In short: as §1

[8] = tested on: ragweed (common ragweed, Ambrosia elatior); test: Test C greenhouse herbicide test, pre- and postemergence
In short: (§2)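 Greenhouse pots; pre-em on seeded loam:sand blend, post-em on 2–18 cm plants (1–4 leaf) in sphagnum peat/vermiculite medium. Formulation: non-phytotoxic solvent + surfactant. Read-out: visual % control (0–100) vs controls at 13–15 d.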

[9] = tested on: oilseed rape (Brassica napus); test: as above
In short: as §2

[10] = tested on: johnsongrass (Sorghum halepense); test: as above
In short: as §2

[11] = 125 g ai/ha, 0 to 100 scale where 0 is no effect and 100 is complete control
[12] = 500 g ai/ha, visual rating after approx. 10 d, 0 to 100 scale (0 no effect, 100 complete control)
[13] = Postemergence, 125 g ai/ha, 0 to 100 scale where 0 is no effect and 100 is complete control
[14] = Postemergence, 500 g ai/ha, visual rating after approx. 10 d, 0 to 100 scale (0 no effect, 100 complete control)
[15] = Preemergence, 125 g ai/ha, 0 to 100 scale where 0 is no effect and 100 is complete control
[16] = Preemergence, 500 g ai/ha, 0 to 100 scale where 0 is no effect and 100 is complete control
[17] = Postemergence, 31 g ai/ha, scale 0 to 100 (0 no effect, 100 complete control)
[18] = Postemergence, 62 g ai/ha, 0 to 100 scale (0 no effect, 100 complete control)
[19] = Postemergence, 250 g ai/ha, scale 0 to 100, 0 no effect, 100 complete control, 13 to 15 d
[20] = Preemergence, 31 g ai/ha, scale 0 to 100, 0 is no effect, 100 is complete control
[21] = Preemergence, 62 g ai/ha, scale 0 to 100, 0 is no effect, 100 is complete control
[22] = Preemergence, 125 g ai/ha, scale 0 to 100, 0 is no effect, 100 is complete control
[23] = Preemergence, 250 g ai/ha, scale 0 to 100, 0 no effect, 100 complete control
[24] = postemergence, 125 g ai/ha, scale 0 to 100, 0 no effect, 100 complete control
[25] = Postemergence, 125 g ai/ha, scale 0 to 100, 0 is no effect, 100 is complete control

In the case of COC(=O)Oc1c(C)nn(C)c(=O)c1-c1ccc(Br)c2ccccc12 [Compound 145], the “Plant response rating, Corn” value [1, 11] is reported as 20, the “Plant response rating, Corn” value [1, 12] is reported as 60 and the “Plant response rating, Pigweed” value [2, 13] is reported as 100. For the same molecule, the “Plant response rating, Pigweed” value [2, 14] was 100, the “Pigweed plant response rating” value [2, 15] was 90 and the “Plant response rating, Pigweed” value [2, 16] was 100. The “Plant response rating, Ragweed” value [3, 13] was 100, the “Plant response rating, Ragweed” value [3, 14] was 100 and the “Plant response rating, Ragweed” value [3, 16] was 100. For the same molecule, the “Plant response rating, Wheat” value [4, 11] was 20, the “Plant response rating, Wheat” value [4, 12] was 30 and the “Plant response rating, Kochia” value [5, 13] was 100. For the same molecule, the “Plant response rating, Kochia” value [5, 14] was 100, the “Kochia plant response rating” value [5, 15] was 90 and the “Plant response rating, Kochia” value [5, 16] was 100. The “Plant response rating, Foxtail, Giant” value [6, 13] was 20, the “Plant response rating, Foxtail, Giant” value [6, 14] was 80 and the “Foxtail, Giant plant response rating” value [6, 15] was 30. The “Plant response rating, Foxtail, Giant” value [6, 16] was 90, the “Plant response rating, Ryegrass, Italian” value [7, 13] was 100 and the “Plant response rating, Ryegrass, Italian” value [7, 14] was 100. The “Plant response rating, Ryegrass, Italian” value [7, 16] was 100, the “Plant response rating, Ragweed” value [8, 17] was 0 and the “Ragweed plant response rating” value [8, 18] was 0. The “Plant response rating, Ragweed” value [8, 19] was 25, the “Plant response rating, Ragweed” value [8, 20] was 55 and the “Plant response rating, Ragweed” value [8, 21] was 65. The “Plant response rating, Ragweed” value [8, 22] was 85, the “Ragweed plant response rating” value [8, 23] was 90 and the “Ragweed plant response rating” value [8, 24] was 5. For the same molecule, the “Plant response rating, Oilseed Rape” value [9, 17] was 98, the “Oilseed Rape plant response rating” value [9, 18] was 98 and the “Plant response rating, Oilseed Rape” value [9, 19] was 90. The “Plant response rating, Oilseed Rape” value [9, 20] was 5, the “Plant response rating, Oilseed Rape” value [9, 21] was 90 and the “Plant response rating, Oilseed Rape” value [9, 22] was 90. For the same molecule, the “Oilseed Rape plant response rating” value [9, 23] was 98, the “Oilseed Rape plant response rating” value [9, 24] was 95 and the “Plant response rating, Johnsongrass” value [10, 17] was 10. The “Johnsongrass plant response rating” value [10, 18] was 10, the “Plant response rating, Johnsongrass” value [10, 19] was 20 and the “Plant response rating, Johnsongrass” value [10, 20] was 10. The “Plant response rating, Johnsongrass” value [10, 21] was 5, the “Plant response rating, Johnsongrass” value [10, 22] was 5 and the “Johnsongrass plant response rating” value [10, 23] was 5. For the same molecule, the “Johnsongrass plant response rating” value [10, 24] was 20.

CCC(=O)Oc1c(C)nn(C)c(=O)c1-c1ccc(F)c2ccccc12 [Compound 113] was tested, and the “Plant response rating, Corn” value [1, 11] was 20, the “Plant response rating, Corn” value [1, 12] was 70 and the “Plant response rating, Pigweed” value [2, 13] was 90. The “Plant response rating, Pigweed” value [2, 14] was 100, the “Pigweed plant response rating” value [2, 15] was 100 and the “Plant response rating, Pigweed” value [2, 16] was 100. The “Plant response rating, Ragweed” value [3, 13] was 90, the “Plant response rating, Ragweed” value [3, 14] was 100 and the “Ragweed plant response rating” value [3, 15] was 70. For the same molecule, the “Plant response rating, Ragweed” value [3, 16] was 90, the “Plant response rating, Wheat” value [4, 11] was 30 and the “Plant response rating, Wheat” value [4, 12] was 70. The “Plant response rating, Kochia” value [5, 13] was 100, the “Plant response rating, Kochia” value [5, 14] was 100 and the “Kochia plant response rating” value [5, 15] was 90. For the same molecule, the “Plant response rating, Kochia” value [5, 16] was 100, the “Plant response rating, Foxtail, Giant” value [6, 13] was 40 and the “Plant response rating, Foxtail, Giant” value [6, 14] was 90. For the same molecule, the “Foxtail, Giant plant response rating” value [6, 15] was 70, the “Plant response rating, Foxtail, Giant” value [6, 16] was 100 and the “Plant response rating, Ryegrass, Italian” value [7, 13] was 100. For the same molecule, the “Plant response rating, Ryegrass, Italian” value [7, 14] was 100, the “Ryegrass, Italian plant response rating” value [7, 15] was 100 and the “Plant response rating, Ryegrass, Italian” value [7, 16] was 100. For the same molecule, the “Plant response rating, Ragweed” value [8, 17] was 90, the “Plant response rating, Ragweed” value [8, 25] was 98 and the “Plant response rating, Ragweed” value [8, 19] was 100. For the same molecule, the “Plant response rating, Ragweed” value [8, 20] was 65, the “Plant response rating, Ragweed” value [8, 21] was 95 and the “Plant response rating, Ragweed” value [8, 22] was 85. For the same molecule, the “Ragweed plant response rating” value [8, 23] was 95, the “Plant response rating, Oilseed Rape” value [9, 17] was 0 and the “Plant response rating, Oilseed Rape” value [9, 25] was 0. For the same molecule, the “Plant response rating, Oilseed Rape” value [9, 19] was 0, the “Plant response rating, Oilseed Rape” value [9, 20] was 0 and the “Plant response rating, Oilseed Rape” value [9, 21] was 0. For the same molecule, the “Plant response rating, Oilseed Rape” value [9, 22] was 60, the “Oilseed Rape plant response rating” value [9, 23] was 90 and the “Plant response rating, Johnsongrass” value [10, 17] was 0. The “Plant response rating, Johnsongrass” value [10, 25] was 10, the “Plant response rating, Johnsongrass” value [10, 19] was 20 and the “Plant response rating, Johnsongrass” value [10, 20] was 0. The “Plant response rating, Johnsongrass” value [10, 21] was 10, the “Plant response rating, Johnsongrass” value [10, 22] was 20 and the “Johnsongrass plant response rating” value [10, 23] was 30.
